Columns and labels:
G12C K-Ras4B (1-169) = target: T1, G12C K-Ras4B (1-169) (Homo sapiens, UniProt P01116, G12C); assay: Binding to KRAS G12C mutant, compound binding rate by LC-MS; details: final compound concentration 2 μM, 1 μM protein, 2 hours at 25° C.
T1 construct: G12C K-Ras4B (1-169) protein, which was a KRAS G12C mutant; His tag (N, cleaved yes); made in house; host or cells: E. coli BL21 (DE3)
Method in brief: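 Covalent labelling at 2 μM final compound on a mix of 1 μM each wild-type and G12C K-Ras4B (1-169) (E. coli-expressed, tag removed) in 1×TBS, 0.1 mM TCEP, 2 h at 25° C., quenched with formic acid. Intact-protein ESI Q-TOF LC-MS; binding rate from adduct vs unbound protein signal, graded A–E in 20% bands.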

KRAS G12C mutant = target: T2, KRAS G12C mutant (Homo sapiens, UniProt P01116, G12C); assay: Inhibition of SOS1-mediated nucleotide (GDP-GTP) exchange reaction of KRAS G12C mutant, BODIPY FL GDP fluorescence; assay type: biochemical; details: preincubated 25° C. 4 hours with 25 nM KRAS G12C bound with BODIPY FL GDP; SOS1 100 nM, GppNHp 1 μM, 30 minutes
T2 construct: 50 μM G12C K-Ras4B (1-169) protein and 1 mM BODIPY® FL GDP; His tag (N, cleaved yes); made in house; host or cells: E. coli BL21 (DE3)
Method in brief: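 KRAS G12C (1-169) loaded with BODIPY FL GDP (25 nM) was preincubated with compound (5% DMSO) for 4 h at 25 °C. Exchange then ran 30 min with SOS1 (564-1049, 100 nM) and 1 µM GppNHp. IC50 came from the 485/520 nm fluorescence change, normalized to DMSO and no-GppNHp controls.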

NCI-H358 cells = assay: Growth inhibition of KRAS-G12C mutant cell line NCI-H358 (CellTiter-Glo 2.0); assay type: cell-based; details: Homo sapiens, 72 h; NCI-H358, 3-day culture with compound
Method: KRAS-G12C mutant human lung cancer cell line NCI-H358 cells (ATCC, Cat #: CRL-5807) were suspended in RPMI1640 medium (manufactured by Fujifilm Wako Pure Chemical Corp.) containing 10% fetal bovine serum. The cell suspension was seeded at 500 cells/well into the wells of a 384-well flat-bottom microplate and cultured at 37° C. for 1 day in an incubator containing 5% CO2. The compound of the present invention was dissolved in DMSO and diluted with DMSO such that the concentration of the test compound was 500 times the final concentration. The solution of the test compound in DMSO was diluted with the medium used for suspending the cells, and the resultant was added to each well of the cell culture plate such that the final concentration of DMSO was 0.2%, followed by culture at 37° C. for another 3 days in an incubator containing 5% CO2.
Growth inhibition rate (%)=(C−T)/(C)×100 • T: the emission intensity in a well supplemented with the test compound. • C: the emission intensity in a well not supplemented with the test compound.

Row | SMILES | binding rate for G12C K-Ras4B (1-169) (G12C K-Ras4B (1-169)) | IC50 (KRAS G12C mutant) [nM] | IC50 (NCI-H358 cells) [nM]
1 | C=CC(=O)N1CC(NC(=O)c2c(C)nc(CNc3cc(C(C)(C)C)c(Cl)cc3O)n2Cc2ccccc2)C1 [Example 40, N-(1-Acryloylazetidin-3-yl)-1-benzyl-2-(((5-(tert-butyl)-4-chloro-2-hydroxyphenyl)amino)methyl)-4-methyl-1H-imidazole-5-carboxamide] | A (80% or more) | 13 | 535
2 | C=CC(=O)N1CC(NC(=O)c2c(C)nc(Cc3cc(C(C)(C)C)c(Cl)cc3O)n2C)C1 [Example 92, N-(1-Acryloylazetidin-3-yl)-2-(5-(tert-butyl)-4-chloro-2-hydroxybenzyl)-1,4-dimethyl-1H-imidazole-5-carboxamide] | B (60% or more and less than 80%) | 55 | 1100
3 | C=CC(=O)N1CC(NC(=O)c2cnc(CNc3cc(C(C)(C)C)c(Cl)cc3O)n2CCN(C)C)C1 [Example 38, N-(1-Acryloylazetidin-3-yl)-2-(((5-(tert-butyl)-4-chloro-2-hydroxyphenyl)amino)methyl)-1-(2-(dimethylamino)ethyl)-1H-imidazole-5-carboxamide] | A (80% or more) | 9 | 708
4 | C=CC(=O)N1CC(NC(=O)c2c(C)nc(CNc3cc(C(C)(C)C)c(C)cc3O)n2C)C1 [Example 76, N-(1-Acryloylazetidin-3-yl)-2-(((5-(tert-butyl)-2-hydroxy-4-methylphenyl)amino)methyl)-1,4-dimethyl-1H-imidazole-5-carboxamide] | A (80% or more) | 17 | 399
5 | C=CC(=O)N1CC(NC(=O)c2c(C)nn(Cc3cc(C(C)(C)C)c(Cl)cc3O)c2C)C1 [Example 96, N-(1-Acryloylazetidin-3-yl)-1-(5-(tert-butyl)-4-chloro-2-hydroxybenzyl)-3,5-dimethyl-1H-pyrazole-4-carboxamide] | A (80% or more) | 65 | 1360
6 | C=CC(=O)N1CC(NC(=O)c2cnc(CNc3cc(C(C)(C)C)c(Cl)cc3O)n2CCOC)C1 [Example 37, N-(1-Acryloylazetidin-3-yl)-2-(((5-(tert-butyl)-4-chloro-2-hydroxyphenyl)amino)methyl)-1-(2-methoxyethyl)-1H-imidazole-5-carboxamide] | A (80% or more) | 13 | 321
7 | C=CC(=O)N1CC(N(C)C(=O)c2nc(CNc3cc(C(C)(C)C)c(Cl)cc3O)cs2)C1 [Example 29, N-(1-Acryloylazetidin-3-yl)-4-(((5-(tert-butyl)-4-chloro-2-hydroxyphenyl)amino)methyl)-N-methylthiazole-2-carboxamide] | A (80% or more) | 12 | 1110
8 | C=CC(=O)N1CC(NC(=O)c2cnc(CNc3cc(C(C)(C)C)c(Cl)cc3O)n2C)C1 [Example 18, N-(1-Acryloylazetidin-3-yl)-2-(((5-(tert-butyl)-4-chloro-2-hydroxyphenyl)amino)methyl)-1-methyl-1H-imidazole-5-carboxamide] | A (80% or more) | 11 | 562
9 | C=CC(=O)N1CC(NC(=O)c2c(C)nc(CNc3cc(C(C)(C)C)c(C)cc3O)n2C(C)C)C1 [Example 78, N-(1-Acryloylazetidin-3-yl)-2-(((5-(tert-butyl)-2-hydroxy-4-methylphenyl)amino)methyl)-1-isopropyl-4-methyl-1H-imidazole-5-carboxamide] | A (80% or more) | 50 | 993
10 | C=CC(=O)N1CC(NC(=O)c2sc(CNc3cc(C(C)(C)C)c(Cl)cc3O)nc2C)C1 [Example 20, N-(1-Acryloylazetidin-3-yl)-2-(((5-(tert-butyl)-4-chloro-2-hydroxyphenyl)amino)methyl)-4-methylthiazole-5-carboxamide] | A (80% or more) | 13 | 658
11 | C=CC(=O)N1CC(N(C)C(=O)c2ccc(CNc3cc(C(C)(C)C)c(Cl)cc3O)o2)C1 [Example 4, N-(1-Acryloylazetidin-3-yl)-5-(((5-(tert-butyl)-4-chloro-2-hydroxyphenyl)amino)methyl)-N-methylfuran-2-carboxamide] | A (80% or more) | 11 | 1170
12 | C=CC(=O)N1CC(NC(=O)c2c(C)nc(CNc3cc(C(C)(C)C)c(Cl)cc3O)n2CC)C1 [Example 41, N-(1-Acryloylazetidin-3-yl)-2-(((5-(tert-butyl)-4-chloro-2-hydroxyphenyl)amino)methyl)-1-ethyl-4-methyl-1H-imidazole-5-carboxamide] | A (80% or more) | 8 | 281
13 | C=CC(=O)N1CC(N(CC)C(=O)c2ccc(CNc3cc(C(C)(C)C)c(Cl)cc3O)o2)C1 [Example 5, N-(1-Acryloylazetidin-3-yl)-5-(((5-(tert-butyl)-4-chloro-2-hydroxyphenyl)amino)methyl)-N-ethylfuran-2-carboxamide] | A (80% or more) | 12 | 699
14 | C=CC(=O)N1CC(NC(=O)c2cnc(CNc3cc(C(C)(C)C)c(Cl)cc3O)n2CC)C1 [Example 36, N-(1-Acryloylazetidin-3-yl)-2-(((5-(tert-butyl)-4-chloro-2-hydroxyphenyl)amino)methyl)-1-ethyl-1H-imidazole-5-carboxamide] | A (80% or more) | 15 | 
15 | C=CC(=O)N1CC(NC(=O)c2cnc(CNc3cc(C(C)(C)C)c(CC)cc3O)n2C)C1 [Example 70, N-(1-Acryloylazetidin-3-yl)-2-(((5-(tert-butyl)-4-ethyl-2-hydroxyphenyl)amino)methyl)-1-methyl-1H-imidazole-5-carboxamide] | B (60% or more and less than 80%) | 84 | 
16 | C=CC(=O)N1CC(NC(=O)c2c(C)nc(C(O)c3cc(C(C)(C)C)c(F)cc3O)n2C)C1 (stereo not shown) [Example 93, N-(1-Acryloylazetidin-3-yl)-2-((5-(tert-butyl)-4-fluoro-2-hydroxyphenyl) (hydroxy)methyl)-1,4-dimethyl-1H-imidazole-5-carboxamide] | E (less than 20%) | 500 | 
17 | C=CC(=O)N1CC[C@@H](N(C)C(=O)c2ccc(CNc3cc(C(C)(C)C)c(Cl)cc3O)o2)C1 [Example 6, (R)—N-(1-Acryloylpyrrolidin-3-yl)-5-(((5-(tert-butyl)-4-chloro-2-hydroxyphenyl)amino)methyl)-N-methylfuran-2-carboxamide] | D (20% or more and less than 40%) | 164 | 
18 | C=CC(=O)N1CC(NC(=O)c2cnc(CNc3cc4c(cc3O)CCC4(C)C)n2C)C1 [Example 71, N-(1-Acryloylazetidin-3-yl)-2-(((6-hydroxy-3,3-dimethyl-2,3-dihydro-1H-inden-5-yl)amino)methyl)-1-methyl-1H-imidazole-5-carboxamide] | C (40% or more and less than 60%) | 221 | 
19 | C=CC(=O)N1CC(NC(=O)c2ccnc(CNc3cc(C(C)(C)C)c(Cl)cc3O)c2)C1 [Example 15, N-(1-Acryloylazetidin-3-yl)-2-(((5-(tert-butyl)-4-chloro-2-hydroxyphenyl)amino)methyl)isonicotinamide] | D (20% or more and less than 40%) | 825 | 
20 | C=CC(=O)N1CC(NC(=O)c2cnc(CNc3cc(S(F)(F)(F)(F)F)ccc3O)n2C)C1 [Example 75, N-(1-Acryloylazetidin-3-yl)-2-(((2-hydroxy-5-(pentafluoro-λ6-sulfaneyl)phenyl)amino)methyl)-1-methyl-1H-imidazole-5-carboxamide] | E (less than 20%) | 661 | 
21 | C=CC(=O)N1CC(NC(=O)c2coc(CNc3cc(C(C)(C)C)c(Cl)cc3O)n2)C1 [Example 13, N-(1-Acryloylazetidin-3-yl)-2-(((5-(tert-butyl)-4-chloro-2-hydroxyphenyl)amino)methyl)oxazole-4-carboxamide] | A (80% or more) | 735 | 
